# Source: PMC12261233, “Photoactivatable Cyclometalated Ir(III) Compound Penetrates the Blood-Brain Barrier in 3D Spheroidal and Advanced 3D Organoid Models of Inherently Resistant and Aggressive Brain Tumors” (ACS Pharmacology & Translational Science, 2025)
# Columns and labels:
# [1] = tested on: U87MG cells; experiment: Iridium uptake in Transwell binary coculture BBB model (ICP-MS), U87MG; format: cell-based, human; settings: 24 h
# Procedure: (§1) The cellular uptake of anticancer compounds after penetrating the BBB is crucial for their efficacy in treating brain tumors. Understanding the extent of cellular uptake provides insights into the distribution and localization of these compounds within brain tumor cells, making such studies essential for assessing their potential efficacy. We utilized the static Transwell binary coculture BBB model, comprising an […] hCMEC/D3 cell line (representing the BBB) and a glioblastoma U87MG cell line. In this model, hCMEC/D3 cells were seeded on the apical side of the Transwell, while U87MG cells were seeded on the basolateral side. […] After a 24-h incubation, cells were harvested, counted, and the iridium uptake by both cell lines was analyzed using ICP-MS. […]
# (§2) To confirm that the tested compounds can effectively target and accumulate in the desired U87MG glioblastoma cells, a coculture model was employed to monitor cellular uptake in both hCMEC/D3 cells and U87MG cells. […] The total iridium uptake by U87MG or hCMEC/D3 cells was analyzed 24 h after treatment. In brief, the apical and basolateral parts were separated, and each cellular model was harvested by trypsinization, pelleted by centrifugation, and counted. […] The final iridium content was determined through ICP-MS analysis. The experiments were replicated in triplicate, and the data are expressed as nanograms of iridium per one million cells.
# [2] = tested on: hCMEC/D3 cells; experiment: Iridium uptake in Transwell binary coculture BBB model (ICP-MS), hCMEC/D3; format: cell-based, human; settings: 10 μM applied apically, 24 h
# Procedure: as §1, §2
smiles,measurement,setting,value
CCCCn1c2[n+](c3cc(C(=O)OC)ccc31)[Ir-3]13([Cl])([c]4ccccc4-2)[n+]2ccccc2-c2cc(-c4ccc(C)cc4)cc([n+]21)-c1cccc[n+]13.F[P-](F)(F)(F)(F)F [Ir4],iridium uptake by U87MG cells,"[1]; 10 μM applied apically, binary coculture BBB model, basolateral cells",108 ± 14 ng Ir/10^6 cells
same,accumulation in U87MG cells compared to hCMEC/D3 cells,"[1]; 10 μM, coculture",more than 2 fold
same,iridium uptake by hCMEC/D3 cells,[2],47 ± 7 ng Ir/10^6 cells
